The text below walks through data of ChEMBL document CHEMBL5614413, “Design, synthesis and biological evaluation of amphiphilic benzopyran derivatives as potent antibacterial agents against multidrug-resistant bacteria” (Eur J Med Chem, 2024).

Values after ≈ are worked out from the molar mass of the structure shown. Bounds are passed on as bounds.

Data set [1] relates to Staphylococcus aureus. The data set is described as follows: Antibacterial activity against methicillin-resistant Staphylococcus aureus ATCC 43300. It is filed as functional.
Data set [2] relates to Staphylococcus aureus. The experiment in a line: Antibacterial activity against erythromycin-susceptible Staphylococcus aureus ATCC 25923. It is filed as functional.
In another data set the test system is Pseudomonas aeruginosa. The data set is described as follows: Antibacterial activity against penicillin-susceptible Pseudomonas aeruginosa ATCC 27853. It is filed as functional.
Data set [3] in a line: Selectivity index, ratio of HC50 for hemolytic activity in sheep RBC to MIC for antibacterial activity against methicillin-resistant Staphylococcus aureus ATCC 43300. The settings on record: sheep red blood cells (erythrocytes), read-out: Selectivity Index. It is filed as toxicity.
A short description of data set [4]: Hemolytic activity in sheep RBC. It is filed as toxicity, cell-based, Ovis aries, Erythrocyte. The note with it: sheep red blood cells (erythrocytes).
In data set [5] the test system is Staphylococcus aureus. The data set is described as follows: Antibacterial activity against penicillin-resistant Staphylococcus aureus ATCC 31007. It is filed as functional.
Another data set relates to Enterococcus faecalis. The experiment in a line: Antibacterial activity against vancomycin-susceptible Enterococcus faecalis ATCC 29212. The format is functional.
Another data set relates to Bacillus subtilis. The experiment in a line: Antibacterial activity against penicillin-susceptible Bacillus subtilis ATCC 9372. It is filed as functional.
In data set [6] the test system is Staphylococcus epidermidis. The data set is described as follows: Antibacterial activity erythromycin-susceptible Staphylococcus epidermidis ATCC 12228. The format is functional.
The test system of the next data set is Escherichia coli. The experiment in a line: Antibacterial activity against penicillin-susceptible Escherichia coli ATCC 25922. It is filed as functional.
Another data set concerns Klebsiella pneumoniae. The data set is described as follows: Antibacterial activity against Klebsiella pneumoniae ATCC 10031. The format is functional.
The subject of another data set is Acinetobacter baumannii. The experiment in a line: Antibacterial activity against Acinetobacter baumannii ATCC 19606. The format is functional.

What is called MIC is the smallest concentration in the dilution series that meets the test's criterion for growth inhibition. Broadly, the HC50 is the concentration giving 50% haemolysis. A low value points to stronger haemolysis. As to `CC(=O)c1ccc2c(c1OCC(=O)NCCCN1CCOCC1)C=CC(C)(CCC=C(C)C)O2` (configuration not stated), the MIC was 64 µg/mL (≈ 136 µM) against Staphylococcus aureus [1]; 128 µg/mL (≈ 272 µM) against Staphylococcus aureus [2]; above 128 µg/mL against Pseudomonas aeruginosa; 128 µg/mL (≈ 272 µM) against Staphylococcus aureus [5]; 128 µg/mL (≈ 272 µM) with Enterococcus faecalis; 128 µg/mL (≈ 272 µM) against Bacillus subtilis. For the same compound, the MIC in data set [6] was 128 µg/mL (≈ 272 µM); in the data set on Escherichia coli, above 128 µg/mL; in the data set on Klebsiella pneumoniae, 128 µg/mL (≈ 272 µM); against Acinetobacter baumannii, 128 µg/mL (≈ 272 µM). Besides, the selectivity ratio in data set [3] stood at 4.1. In [4], this compound came in with an HC50 of 261 µg/mL.

With `COc1c(C(=O)/C=C/c2ccc(OCCCN)cc2)ccc2c1C=CC(C)(CCC=C(C)C)O2` (configuration not stated), the MIC came to 8 µg/mL (≈ 17.3 µM) with Staphylococcus aureus [1]; 8 µg/mL (≈ 17.3 µM) in the data set with Staphylococcus aureus [2]; 16 µg/mL (≈ 34.7 µM) against Pseudomonas aeruginosa; 16 µg/mL (≈ 34.7 µM) against Staphylococcus aureus [5]; 16 µg/mL (≈ 34.7 µM) in the data set on Enterococcus faecalis; 8 µg/mL (≈ 17.3 µM) with Bacillus subtilis. Also, the MIC turned out to be 8 µg/mL (≈ 17.3 µM) in data set [6], 8 µg/mL (≈ 17.3 µM) in the data set with Escherichia coli, 16 µg/mL (≈ 34.7 µM) with Klebsiella pneumoniae and 16 µg/mL (≈ 34.7 µM) in the data set on Acinetobacter baumannii. Besides, in [3], the selectivity ratio is 13.8. The compound also showed an HC50 in data set [4] of 111 µg/mL.

In the case of `CCNCCCOc1ccc(/C=C/C(=O)c2ccc3c(c2OC)C=CC(C)(CCC=C(C)C)O3)cc1` (configuration not stated), the MIC in the data set with Staphylococcus aureus [1] was 8 µg/mL (≈ 16.3 µM); in the data set on Staphylococcus aureus [2] it was 8 µg/mL (≈ 16.3 µM); against Pseudomonas aeruginosa, above 128 µg/mL; in the data set with Staphylococcus aureus [5], 8 µg/mL (≈ 16.3 µM); against Enterococcus faecalis, 4 µg/mL (≈ 8.17 µM); in the data set with Bacillus subtilis, 8 µg/mL (≈ 16.3 µM). Further, the MIC in [6] was 1 µg/mL (≈ 2.04 µM); with Escherichia coli, above 128 µg/mL; against Klebsiella pneumoniae it was 32 µg/mL (≈ 65.4 µM); in the data set on Acinetobacter baumannii, above 128 µg/mL. The selectivity ratio in data set [3] was 7.5. In addition, the HC50 in data set [4] came out at 59.9 µg/mL.

Take `CCCCN(CCCC)CCCNC(=O)COc1c(C(C)=O)ccc2c1C=CC(C)(CCC=C(C)C)O2` (configuration not stated): the MIC was 8 µg/mL (≈ 15.6 µM) in the data set with Staphylococcus aureus [1]; 16 µg/mL (≈ 31.2 µM) in the data set with Staphylococcus aureus [2]; above 128 µg/mL in the data set with Pseudomonas aeruginosa; 16 µg/mL (≈ 31.2 µM) against Staphylococcus aureus [5]; 32 µg/mL (≈ 62.4 µM) against Enterococcus faecalis; 4 µg/mL (≈ 7.8 µM) in the data set on Bacillus subtilis. The minimal inhibitory concentration (MIC) is 32 µg/mL (≈ 62.4 µM) in data set [6], above 128 µg/mL in the data set on Escherichia coli, 128 µg/mL (≈ 250 µM) in the data set on Klebsiella pneumoniae and 128 µg/mL (≈ 250 µM) against Acinetobacter baumannii. In [3], the selectivity ratio worked out at 33.8. The compound further gave an HC50 in [4] of 270 µg/mL.

For `CNCCCOc1ccc(/C=C/C(=O)c2ccc3c(c2OC)C=CC(C)(CCC=C(C)C)O3)cc1` (configuration not stated), the minimal inhibitory concentration (MIC) in the data set on Staphylococcus aureus [1] is 16 µg/mL (≈ 33.6 µM); against Staphylococcus aureus [2], 8 µg/mL (≈ 16.8 µM); with Pseudomonas aeruginosa, above 128 µg/mL; in the data set on Staphylococcus aureus [5] it was 8 µg/mL (≈ 16.8 µM); in the data set with Enterococcus faecalis it was 4 µg/mL (≈ 8.41 µM); in the data set on Bacillus subtilis it was 4 µg/mL (≈ 8.41 µM). Besides, the MIC in data set [6] is 1 µg/mL (≈ 2.1 µM); with Escherichia coli, above 128 µg/mL; in the data set on Klebsiella pneumoniae, 32 µg/mL (≈ 67.3 µM); in the data set on Acinetobacter baumannii, above 128 µg/mL. Besides, in data set [3], the selectivity ratio turned out to be 5.6. Further, the HC50 in data set [4] is 90.5 µg/mL.

For the compound `CC(=O)c1ccc2c(c1OCC(=O)N(CCCN)CCCN)C=CC(C)(CCC=C(C)C)O2.Cl.Cl` (configuration not stated), the MIC in the data set with Staphylococcus aureus [1] is 128 µg/mL; in the data set on Staphylococcus aureus [2] it was above 128 µg/mL; against Pseudomonas aeruginosa, above 128 µg/mL; in the data set with Staphylococcus aureus [5] it was above 128 µg/mL; in the data set on Enterococcus faecalis, above 128 µg/mL; against Bacillus subtilis it was 32 µg/mL. Further, the MIC was 128 µg/mL in data set [6], above 128 µg/mL against Escherichia coli, above 128 µg/mL against Klebsiella pneumoniae and above 128 µg/mL against Acinetobacter baumannii. The selectivity ratio in data set [3] worked out at 13. The compound also displayed an HC50 in data set [4] of 1670 µg/mL.
